Measured values from US12643913B2, “Mcl-1 inhibitor formulations” (AMGEN INC., priority 2020, dated 2026).
“Also recorded” adds a separate entry of the source.

Assays:
[1] = Moisture sorption profile (DVS); assay type: physicochemical; conditions: by 95% RH; listed as amorphous AMG 397
Experimental: Moisture Sorption: Moisture sorption data was collected using a Surface Measurement Systems DVSAdvantage instrument. Equilibrium criteria were set at ±0.001% weight change in 10 minutes with a maximum equilibrium time of 380 minutes.
Moisture Sorption: Moisture sorption data was collected using a Surface Measurement Systems DVSAdvantage instrument. Equilibrium criteria were set at ±0.001% weight change in 10 minutes with a maximum equilibrium time of 360 minutes.

[2] = Chemical stability of amorphous solid dispersions (HPLC: LCAP, total impurities) through processing and on storage; assay type: physicochemical; conditions: all storage conditions
Experimental: The chemical and physical stability of AMG 397 50% drug load ASDs generated by spray drying from THF was monitored over 4 weeks under accelerated conditions. Chemical stability was measured by HPLC and physical stability by XRPD, DSC and TGA. Samples were stored at 40° C./75% RH open, 40° C./75% RH closed, 25° C./60% RH closed, and 5° C. closed. All samples were tested after storage for 4 weeks except for the 40° C./75% RH open condition that was also tested at weeks 1 and 2. The THF ASD samples had significant degradation at TO due to the use of THF as the spray solvent. […] Unlike the amorphous DS, the ASD samples were stable when stored at 5° C. for 4-weeks.
Two further amorphous solid dispersions (ASD) were therefore prepared by spray-drying using DCM as the solvent in place of THF. Soluplus was used to prepare both these dispersions due to its improved stability over HPMC-AS ASDs generated from THF. Two drug loads were investigated, 25% and 50%.
The chemical stability of AMG 397 Soluplus ASDs generated by spray drying using DCM was monitored during each processing step to ensure that no degradation occurred during spray-drying or secondary drying. Samples were also stored for 4 weeks under the following conditions: 5° C. closed, 25° C. closed, 25°,C/60% RH closed, 25° C./60% RH open, 40° C./75% RH open and 40° C./75% RH closed. […]

[3] = Clinical observations in the beagle dog PK study; assay type: in vivo, male beagle dogs; conditions: 3 mg/kg PO, individual dogs
Experimental: Briefly, during each phase five male beagle dogs were assigned to each group of the study. All animals were fasted for at least eight hours prior to dosing and through the first four hours of blood sample collection for each phase. Food was returned within 30 minutes following collection of the last blood sample at the four-hour collection interval. Each animal in Phase 1, received a single oral (PO) gavage dose of the appropriate test article formulation as outlined in the study design Table 6. Oral gavage dosing formulations were continuously stirred throughout dosing. The gavage tube was rinsed with approximately 10 mL of tap water following dosing (prior to removal of the gavage tube). Following each study phase a 7-day washout period was allowed prior to the dosing of the next phase. The same five dogs were assigned to either group 1 or group 2 formulations for the duration of the study.
Test Article Administration: A total of 10 male beagle dogs were initially assigned to study. All animals were fasted for at least eight hours prior to dosing and through the first four hours of blood sample collection for each phase, where applicable (food will be returned within 30 minutes following collection of the last blood sample at the four hour collection interval, where applicable). Total fasting time […] 24 hours.
Different pre-treatments were assigned for each phase of the study to mimic several scenarios: • 1. No pre-treatment was administered for Phase 1 as it served as a control. • 2. During Phase 2, at 1 hour 54 minutes to 1 hour 58 minutes prior to dose administration, all animals were pretreated with two 20 mg (40 mg total) oral tablets of famotidine followed by a 10 mL dose of deionized water. […] This was used to determine the role of stomach pH on exposure. • 3. During Phases 3 and 4, at 30 to 38 minutes prior to dose administration, all animals were pretreated with a single intramuscular dose of pentagastrin in phosphate buffered saline, pH 7.4, at a dose level of 0.006 mg/kg and a dose volume of 0.05 mL/kg. The pentagastrin dose was used to ensure that the dogs stomach pH was normalized to pH ˜2.0 as it is known that the dogs stomach pH is often higher than that of humans under resting conditions. • 4. In addition, […], at 1 hour 3 minutes to 1 hour 6 minutes prior to dose administration and 4 hours 10 minutes to 4 hours 11 minutes following dose by oral gavage at a dose level of 3 mg/kg and a dose volume of 4 mL/kg. This final phase was used to study if P-gp played a role in absorption.

- Moisture sorption weight gain [1]: ~6.4%
- Change of total impurities at 4-weeks [2]: Increases in total impurities
- Positive clinical findings (observation) ([3]; Phase 1 (Days 1 to 7), no pre-treatment): Yellow, frothy vomitus
- Positive clinical findings (observation) ([3]; Phase 4 (Days 22 to 24), pentagastrin pre-treatment and inhibitor GF120918 pre- and post-treatment): Small amount of white,
Structure (SMILES): CO[C@]1(CN2CCN3CCCC[C@@H]3C2)/C=C/C[C@H](C)[C@@H](C)S(=O)(=O)NC(=O)c2ccc3c(c2)N(C[C@@H]2CC[C@H]21)C[C@@]1(CCCc2cc(Cl)ccc21)CO3 [AMG 397 Amorphous]
- Positive clinical findings (observation) ([3]; Phase 2 (Days 8 to 14), famotidine pre-treatment): White, frothy vomitus; also recorded: Soft feces; also recorded: Yellow, frothy vomitus
- Positive clinical findings (observation) ([3]; Phase 3 (Days 15 to 21), pentagastrin pre-treatment): Salivation; also recorded: White, frothy vomitus; also recorded: Yellow, frothy vomitus
- Positive clinical findings (observation) ([3]; Phase 5 (Days 71 to 73), inhibitor GF120918 pre- and post-treatment, 3 mg/kg): Salivation; also recorded: Watery feces; also recorded: Yellow, frothy vomitus; also recorded: Yellow, discolored feces; also recorded: Mucoid feces; also recorded: Tan, frothy vomitus
